Measurements as given in publication PMC6270304, “Synthesis, Structure and Cytotoxic Activity of New Acetylenic Derivatives of Betulin” (Molecules, 2013).
In brackets after ≈: the same amount, converted by molar mass.

Assays:
[1] = test system: investigated cancer cell lines (T47D, CCRF/CEM, SW707, P388, Balb3T3); assay: cells; assay type: cell-based, human and murine
Method: (§1) Cytotoxic activities of all newly synthesized compounds including betulin (1) were tested in SRB or MTT (in the case of leukemia cells) assay for their antiproliferative activity in vitro against three human cancer cell lines: SW707 (colorectal adenocarcinoma), CCRF/CEM (leukemia), T47D (breast cancer), and murine leukemia P388 as well as Balb3T3 normal fibroblasts cell lines. […] A value of less than 4 μg/mL was considered as an antiproliferative activity criterion for synthetic compounds [31].
(§2) The following established in vitro cell lines were applied: SW707 (human colorectal adenocarcinoma), CCRF/CEM (human leukemia), T47D (human breast cancer), P388 (mouse leukemia) and Balb3T3 (normal mouse fibroblasts). All lines were obtained from the American Type Culture Collection (Rockville, MD, USA) and maintained at the Cell Culture Collection of the Institute of Immunology and Experimental Therapy (Wroclaw, Poland).
(§3) Twenty-four hours before addition of the tested agents, the cells were plated in 96-well plates (Sarstedt, Numbrecht, Germany) at a density of 10^4 cells per well in 100 μL of culture medium. The cells were cultured in the opti-MEM medium supplemented with 2 mM glutamine (Gibco, Grand Island, NY, USA), streptomycin (50 μg/mL), penicillin (50 U/mL) (both antibiotics from Polfa, Tarchomin, Poland) and 5% fetal calf serum (Gibco). The cell cultures were maintained at 37 °C in humid atmosphere saturated with 5% CO2.
(§4) The compounds were dissolved in DMSO and culture medium (1:9) to the concentration of 1 mg/mL, and subsequently diluted in culture medium to reach the required concentrations (ranging from […]).
(§5) The in vitro cytotoxic effect of all agents was examined using the SRB assay for adherent cells and MTT assay for leukemia cells as described by Wietrzyk et al.. Each compound in given concentration was tested in triplicates in each experiment, which was repeated 3–5 times.

[2] = test system: SW707 (human colorectal adenocarcinoma); assay: Antiproliferative assay in vitro (SRB); assay type: cell-based; conditions: for IC50: Homo sapiens, SW707, read-out: Cytotoxic activity IC50, Human SW707
Method: as §1, §2, §3, §4, §5

[3] = test system: Balb3T3 (normal mouse fibroblasts); assay: Antiproliferative assay in vitro (SRB); assay type: cell-based
Method: as §1, §2, §3, §4, §5

[4] = test system: T47D (human breast cancer); assay: Antiproliferative assay in vitro (SRB); assay type: cell-based; conditions: for IC50: Homo sapiens, T47D, read-out: Cytotoxic activity IC50, Human T47D
Method: as §1, §2, §3, §4, §5

P388 (mouse leukemia) = assay: Antiproliferative assay in vitro (MTT); assay type: cell-based; conditions: for IC50: Mus musculus, P388, read-out: Cytotoxic activity IC50, Murine P388
Method: as §1, §2, §3, §4, §5

[5] = test system: CCRF/CEM (human leukemia); assay: Antiproliferative assay in vitro (MTT); assay type: cell-based; conditions: for IC50: Homo sapiens, CCRF-CEM, read-out: Cytotoxic activity IC50, Human CCRF/CEM
Method: as §1, §2, §3, §4, §5

[6] = Antiproliferative assay in vitro (SRB); assay type: cell-based, mouse; conditions: mouse; Balb3T3 normal fibroblasts; SRB; Neg = negative in the concentration used; read-out: Cytotoxic activity IC50, Murine Balb3T3
Method: as §1, §2, §3, §4, §5

| Structure (SMILES) | cytotoxic activity in words [1] | Cytotoxic activity IC50, Human SW707 [2] | Cytotoxic activity IC50, Murine Balb3T3 [3] | Cytotoxic activity IC50, Human T47D [4] | melting point | Cytotoxic activity IC50, Murine P388 (P388 (mouse leukemia)) | IC50 [5] | cytotoxicity relative to betulin (1) [1] | IC50 [2] | IC50 [4] | IC50 (P388 (mouse leukemia)) | Cytotoxic activity IC50, Human CCRF/CEM [5] | IC50 ([1]; Mus musculus, all cell lines except leukemia P388, read-out: IC50 values range over investigated cell lines) | IC50 [6] | selectivity index (SI) (P388 (mouse leukemia); ratio IC50 of normal fibroblast (Balb3T3) / IC50 on P388) |
| --- | --- | --- | --- | --- | --- | --- | --- | --- | --- | --- | --- | --- | --- | --- | --- |
| C=C(C)C1CC[C@]2(COC(=O)C#Cc3ccccc3)CC[C@]3(C)C(CCC4[C@@]5(C)CC[C@H](O)C(C)(C)C5CC[C@]43C)C12 (some centres unmarked) [Compound 5b, 28-O-Phenylpropynoylbetulin] | inactive | Neg | Neg | Neg | 204 to 206 °C | Neg | 49 ± 9.8 µg/mL (≈ 85.8 µM) | – | – | – | – | – | – | – | – |
| C#CCOC(=O)OC[C@]12CCC(C(=C)C)C1C1CCC3[C@@]4(C)CC[C@H](O)C(C)(C)C4CC[C@@]3(C)[C@]1(C)CC2 (some centres unmarked) [Compound 3a, 28-O-Propargyloxycarbonylbetulin] | – | – | – | – | – | – | 3.2 ± 0.4 µg/mL (≈ 6.1 µM) | three to four times more cytotoxic than betulin | 9.2 ± 7.1 µg/mL (≈ 17.5 µM) | 7.2 ± 1.7 µg/mL (≈ 13.7 µM) | 2.9 ± 0.2 µg/mL (≈ 5.53 µM) | – | – | – | – |
| C#CCCOC(=O)O[C@H]1CC[C@@]2(C)C(CC[C@]3(C)C2CCC2C4C(C(=C)C)CC[C@]4(COC(C)=O)CC[C@]23C)C1(C)C (some centres unmarked) [Compound 8b, 28-O-Acetyl-3-O'-(3-butynyloxycarbonyl)betulin] | – | Neg | Neg | Neg | 118 to 121 °C | – | – | – | – | – | 46.7 ± 16.2 µg/mL (≈ 80.4 µM) | Neg | – | – | – |
| C=C(C)C1CC[C@]2(COC(=O)CC)CC[C@]3(C)C(CCC4[C@@]5(C)CC[C@H](OC(=O)CC)C(C)(C)C5CC[C@]43C)C12 (some centres unmarked) [Compound 6c, 3,28-O,O'-Dipropanoylbetulin] | – | – | Neg | – | 142 to 144 °C | – | – | – | 42.3 ± 9.4 µg/mL (≈ 76.2 µM) | 26.6 ± 6.8 µg/mL (≈ 47.9 µM) | 68.1 ± 14.8 µg/mL (≈ 123 µM) | Neg | – | – | – |
| C=C(C)C1CC[C@]2(COC(=O)OCC#CC)CC[C@]3(C)C(CCC4[C@@]5(C)CC[C@H](OC(=O)OCC#CC)C(C)(C)C5CC[C@]43C)C12 (some centres unmarked) [Compound 4c, 3,28-O,O'-Di(2-butynyloxycarbonyl)betulin] | – | Neg | Neg | Neg | 70 to 73 °C | – | – | – | – | – | 50.4 ± 31.1 µg/mL (≈ 79.4 µM) | Neg | – | – | – |
| C=C(C)C1CC[C@]2(COC(=O)C#Cc3ccccc3)CC[C@]3(C)C(CCC4[C@@]5(C)CC[C@H](OC(=O)C#Cc6ccccc6)C(C)(C)C5CC[C@]43C)C12 (some centres unmarked) [Compound 6b, 3,28-O,O'-Di(phenylpropynoyl)betulin] | inactive | Neg | Neg | Neg | 91 to 92 °C | Neg | 66 ± 2.8 µg/mL (≈ 94.4 µM) | – | – | – | – | – | – | – | – |
| C=C(C)C1CC[C@]2(COC(=O)OCC)CC[C@]3(C)C(CCC4[C@@]5(C)CC[C@H](OC(=O)OCC)C(C)(C)C5CC[C@]43C)C12 (some centres unmarked) [Compound 4d, 3,28-O,O'-Di(ethoxycarbonyl)betulin] | – | Neg | Neg | – | 84 to 86 °C | – | 52.6 ± 8.3 µg/mL (≈ 89.6 µM) | – | – | 69.1 ± 12.4 µg/mL (≈ 118 µM) | 46.8 ± 21.6 µg/mL (≈ 79.7 µM) | – | – | – | – |
| C=C(C)C1CC[C@]2(COC(C)=O)CC[C@]3(C)C(CCC4[C@@]5(C)CC[C@H](OC(=O)OCC#CC)C(C)(C)C5CC[C@]43C)C12 (some centres unmarked) [Compound 8c, 28-O-Acetyl-3-O'-(2-butynyloxycarbonyl)betulin] | – | Neg | Neg | Neg | 126 to 129 °C | Neg | – | – | – | – | – | Neg | – | – | – |
| C=C(C)C1CC[C@]2(COC(C)=O)CC[C@]3(C)C(CCC4[C@@]5(C)CC[C@H](OC(=O)OCC)C(C)(C)C5CC[C@]43C)C12 (some centres unmarked) [Compound 8d, 28-O-Acetyl-3-O'-(ethoxycarbonyl)betulin] | – | Neg | Neg | Neg | 200 to 202 °C | Neg | – | – | – | – | – | Neg | – | – | – |
| C=C(C)[C@@H]1CC[C@]2(CO)CC[C@]3(C)[C@H](CC[C@@H]4[C@@]5(C)CC[C@H](O)C(C)(C)[C@@H]5CC[C@]43C)[C@@H]12 [Compound 1, lup-20(29)-ene-3β,28-diol, reference compound] | – | – | – | – | – | – | 10.9 ± 5.5 µg/mL (≈ 24.6 µM) | – | 22.9 ± 15.4 µg/mL (≈ 51.7 µM) | 32.4 ± 10.7 µg/mL (≈ 73.2 µM) | 5.5 ± 3.3 µg/mL (≈ 12.4 µM) | – | 10.9 to 47.3 µg/mL (≈ 24.6 to 107 µM) | 47.3 ± 7.9 µg/mL (≈ 107 µM) | 8.6 |
